Test results published in PubChem BioAssay AID330 (DTP/NCI, 2004).
Several values for one entry are separate records, joined by “and”; a condition that tells them apart may be missing. Equal values may be shown once. Toxic doses and inconclusive results are not listed. The calls were made as follows: active = survival T/C of 150% or more; inactive = T/C below 125% in these data.

Tested on: P388 leukemia ip, CD2F1 mice, survival T/C
Test: NCI In Vivo Anticancer Drug Screen. Data for tumor model P388 Leukemia (intraperitoneal) in CD2F1 (CDF1) mice
Conditions: endpoint: median survival time, higher = longer survival
Procedure, shortened: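 Mice carrying the transplanted tumor received test compound or vehicle. Survival was recorded in each group, and the value is the treated-group measurement divided by that of the vehicle-treated control group.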

[1] = dose: 12.5 mg/kg/injection, schedule: Q01DX009 (ip), vehicle: saline with Tween-80
[2] = dose: 25.0 mg/kg/injection, schedule: Q01DX009 (ip), vehicle: saline with Tween-80
[3] = dose: 25.0 mg/kg/injection, schedule: Q04DX003 (ip), vehicle: saline with Tween-80
[4] = dose: 50.0 mg/kg/injection, schedule: Q01DX009 (ip), vehicle: saline with Tween-80
[5] = dose: 50.0 mg/kg/injection, schedule: Q04DX003 (ip), vehicle: saline with Tween-80
[6] = dose: 100.0 mg/kg/injection, schedule: Q04DX003 (ip), vehicle: saline with Tween-80
[7] = dose: 200.0 mg/kg/injection, schedule: Q04DX003 (ip), vehicle: saline with Tween-80
[8] = dose: 50.0 mg/kg/injection, schedule: Q01DX005 (ip), vehicle: Klucel (hydroxypropylcellulose) (HPC)
[9] = dose: 100.0 mg/kg/injection, schedule: Q01DX005 (ip), vehicle: Klucel (hydroxypropylcellulose) (HPC)

Measured: T/C

CCCCCCCCCCCC(=O)NO
inactive: dose: 3.13 mg/kg/injection, schedule: Q01DX009 (ip), vehicle: saline with Tween-80 94 % of control | dose: 6.25 mg/kg/injection, schedule: Q01DX009 (ip), vehicle: saline with Tween-80 99 % of control | [1] 101 % of control | [2] 95 % of control

CC1C(=O)c2cc3c(cc2CCN(C)Cc2c1ccc1c2OCO1)OCO3 (stereo unspecified)
inactive: dose: 5.0 mg/kg/injection, schedule: Q01DX009 (ip), vehicle: saline with Tween-80 100 % of control | dose: 10.0 mg/kg/injection, schedule: Q01DX009 (ip), vehicle: saline with Tween-80 99 % of control | [1] 90 % of control | [3] 109 % of control | [4] 90 % of control | [5] 104 % of control

O=C1c2ccccc2NC1c1ccc2ccccc2n1 (stereo unspecified)
inactive: dose: 25.0 mg/kg/injection, schedule: Q01DX009 (ip), vehicle: Klucel (hydroxypropylcellulose) (HPC) 94 % of control | dose: 50.0 mg/kg/injection, schedule: Q01DX009 (ip), vehicle: Klucel (hydroxypropylcellulose) (HPC) 93 % of control | dose: 100.0 mg/kg/injection, schedule: Q01DX009 (ip), vehicle: Klucel (hydroxypropylcellulose) (HPC) 86 % of control

Cc1c[nH]c(=O)[nH]c1=O
inactive: dose: 32.0 mg/kg/injection, schedule: Q01DX009 (ip), vehicle: Klucel (hydroxypropylcellulose) (HPC) 99 % of control and 107 % of control | dose: 32.0 mg/kg/injection, schedule: Q01DX009 (ip), vehicle: saline with Tween-80 116 % of control | dose: 64.0 mg/kg/injection, schedule: Q01DX009 (ip), vehicle: Klucel (hydroxypropylcellulose) (HPC) 99 % of control and 102 % of control | dose: 64.0 mg/kg/injection, schedule: Q01DX009 (ip), vehicle: saline with Tween-80 106 % of control | dose: 128.0 mg/kg/injection, schedule: Q01DX009 (ip), vehicle: Klucel (hydroxypropylcellulose) (HPC) 100 % of control and 107 % of control | dose: 128.0 mg/kg/injection, schedule: Q01DX009 (ip), vehicle: saline with Tween-80 111 % of control | dose: 170.0 mg/kg/injection, schedule: Q04DX003 (ip), vehicle: saline with Tween-80 100 % of control | dose: 170.0 mg/kg/injection, schedule: Q## X003 (ip), vehicle: saline with Tween-80 100 % of control | dose: 256.0 mg/kg/injection, schedule: Q01DX009 (ip), vehicle: Klucel (hydroxypropylcellulose) (HPC) 100 % of control and 112 % of control | dose: 260.0 mg/kg/injection, schedule: Q04DX003 (ip), vehicle: saline with Tween-80 94 % of control | dose: 260.0 mg/kg/injection, schedule: Q## X003 (ip), vehicle: saline with Tween-80 94 % of control | dose: 390.0 mg/kg/injection, schedule: Q04DX003 (ip), vehicle: saline with Tween-80 95 % of control and 98 % of control | dose: 390.0 mg/kg/injection, schedule: Q## X003 (ip), vehicle: saline with Tween-80 95 % of control and 98 % of control | dose: 512.0 mg/kg/injection, schedule: Q01DX009 (ip), vehicle: Klucel (hydroxypropylcellulose) (HPC) 106 % of control and 93 % of control | dose: 512.0 mg/kg/injection, schedule: Q01DX009 (ip), vehicle: saline with Tween-80 98 % of control | dose: 520.0 mg/kg/injection, schedule: Q04DX003 (ip), vehicle: saline with Tween-80 95 % of control and 98 % of control | dose: 520.0 mg/kg/injection, schedule: Q## X003 (ip), vehicle: saline with Tween-80 95 % of control and 98 % of control

CCCCCCCCCCNC1CC(OC2CC(O)(C(C)=O)Cc3c(O)c4c(c(O)c32)C(=O)c2c(OC)cccc2C4=O)OC(C)C1O (stereo unspecified)
inactive: dose: 4.7 mg/kg/injection, schedule: Q04DX003 (ip), vehicle: water 101 % of control | dose: 9.4 mg/kg/injection, schedule: Q04DX003 (ip), vehicle: water 97 % of control | dose: 18.8 mg/kg/injection, schedule: Q04DX003 (ip), vehicle: water 106 % of control | dose: 37.5 mg/kg/injection, schedule: Q04DX003 (ip), vehicle: water 92 % of control

CNC(=S)/N=c1/sc([N+](=O)[O-])c(C)n1C
inactive: dose: 1.87 mg/kg/injection, schedule: Q01DX005 (ip), vehicle: saline with Tween-80 94 % of control | dose: 3.75 mg/kg/injection, schedule: Q01DX005 (ip), vehicle: saline with Tween-80 92 % of control | dose: 7.5 mg/kg/injection, schedule: Q01DX005 (ip), vehicle: saline with Tween-80 99 % of control and 97 % of control | dose: 15.0 mg/kg/injection, schedule: Q01DX005 (ip), vehicle: saline with Tween-80 95 % of control

C=CCSc1nc(N)nc(Nc2ccccc2)n1
inactive: dose: 100.0 mg/kg/injection, schedule: Q01DX001 (ip), vehicle: saline with Tween-80 98 % of control | dose: 200.0 mg/kg/injection, schedule: Q01DX001 (ip), vehicle: saline with Tween-80 92 % of control | dose: 400.0 mg/kg/injection, schedule: Q01DX001 (ip), vehicle: saline with Tween-80 87 % of control

OC(CCl)COn1nnc2ccccc21 (stereo unspecified)
inactive: dose: 25.0 mg/kg/injection, schedule: Q01DX005 (ip), vehicle: saline with Tween-80 100 % of control | dose: 50.0 mg/kg/injection, schedule: Q01DX005 (ip), vehicle: saline with Tween-80 102 % of control | dose: 100.0 mg/kg/injection, schedule: Q01DX005 (ip), vehicle: saline with Tween-80 100 % of control | [6] 98 % of control | [7] 99 % of control | dose: 400.0 mg/kg/injection, schedule: Q04DX003 (ip), vehicle: saline with Tween-80 94 % of control

Nc1ccc2ccc(N)nc2c1
inactive: dose: 50.0 mg/kg/injection, schedule: Q01DX009 (ip), vehicle: acid diluted with saline 105 % of control

O=C(Nc1ccccc1C(=O)OCCCl)NN1CCCCCC1
inactive: [8] 107 % of control | [9] 100 % of control | dose: 200.0 mg/kg/injection, schedule: Q01DX005 (ip), vehicle: Klucel (hydroxypropylcellulose) (HPC) 98 % of control

O=C1C2Nc3ccccc3N=C2OC1c1cccc([N+](=O)[O-])c1 (stereo unspecified)
inactive: dose: 60.0 mg/kg/injection, schedule: Q01DX005 (ip), vehicle: Klucel + Tween-80 107 % of control | dose: 120.0 mg/kg/injection, schedule: Q01DX005 (ip), vehicle: Klucel + Tween-80 97 % of control | dose: 240.0 mg/kg/injection, schedule: Q01DX005 (ip), vehicle: Klucel + Tween-80 91 % of control

CCCNCC(O)c1cc(C(F)(F)F)nc2c(C(F)(F)F)cccc12 (stereo unspecified)
inactive: [1] 99 % of control | [2] 95 % of control | [4] 107 % of control

CC1C(=O)C23CC1CCC2C12COC(O)C1C(C)(C)C(O)CC2OC3=O (stereo unspecified)
inactive: dose: 12.5 mg/kg/injection, schedule: Q01DX005 (ip), vehicle: Klucel (hydroxypropylcellulose) (HPC) 100 % of control | dose: 25.0 mg/kg/injection, schedule: Q01DX005 (ip), vehicle: Klucel (hydroxypropylcellulose) (HPC) 94 % of control | [8] 100 % of control | dose: 61.5 mg/kg/injection, schedule: Q01DX005 (ip), vehicle: Klucel (hydroxypropylcellulose) (HPC) 96 % of control | [9] 102 % of control | dose: 123.0 mg/kg/injection, schedule: Q01DX005 (ip), vehicle: Klucel (hydroxypropylcellulose) (HPC) 106 % of control | dose: 246.0 mg/kg/injection, schedule: Q01DX005 (ip), vehicle: Klucel (hydroxypropylcellulose) (HPC) 98 % of control

COc1cc2c(cc1OC)C(Cc1ccccc1[N+](=O)[O-])=NCC2
inactive: [3] 99 % of control | [5] 100 % of control | [6] 114 % of control | [7] 100 % of control

CS/C(=C/c1ccc2ccccc2[n+]1C)N1CCSCC1
inactive: dose: 1.56 mg/kg/injection, schedule: Q01DX005 (ip), vehicle: saline with Tween-80 108 % of control | dose: 3.13 mg/kg/injection, schedule: Q01DX005 (ip), vehicle: saline with Tween-80 113 % of control | dose: 6.25 mg/kg/injection, schedule: Q01DX005 (ip), vehicle: saline with Tween-80 113 % of control
